Measured values published in ChEMBL document CHEMBL1129874, “A SHORT AND EFFICIENT SYNTHESIS OF ZAMIFENACIN A MUSCARINIC M3 RECEPTOR ANTAGONIST” (Bioorg Med Chem Lett, 1997).
Active and inactive are the calls of the source.

What was measured:
[1] = molecular target: T1, Muscarinic acetylcholine receptor M2 (Homo sapiens) (UniProt P08172); experiment: Evaluated for the in vitro antagonistic activity against muscarinic M2 receptor; Active; type: functional
T1 sequence (whole entry): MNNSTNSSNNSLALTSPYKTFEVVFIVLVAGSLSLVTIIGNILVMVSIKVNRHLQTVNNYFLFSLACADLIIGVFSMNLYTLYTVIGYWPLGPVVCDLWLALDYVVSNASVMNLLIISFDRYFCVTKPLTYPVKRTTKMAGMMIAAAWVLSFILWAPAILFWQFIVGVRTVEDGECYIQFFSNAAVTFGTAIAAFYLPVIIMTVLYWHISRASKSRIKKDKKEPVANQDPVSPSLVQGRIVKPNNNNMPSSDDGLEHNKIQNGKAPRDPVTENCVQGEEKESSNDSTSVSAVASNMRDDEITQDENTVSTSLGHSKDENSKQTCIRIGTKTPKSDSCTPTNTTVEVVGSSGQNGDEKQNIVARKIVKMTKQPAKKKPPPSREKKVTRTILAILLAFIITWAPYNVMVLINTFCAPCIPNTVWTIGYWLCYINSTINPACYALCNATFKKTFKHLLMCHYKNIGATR

Homo sapiens [2] = species: Homo sapiens; experiment: Compound was tested for the inhibition of the small bowel motility in humans; Active; type: functional, organism-based
Homo sapiens [3] = species: Homo sapiens; experiment: Compound was tested for the inhibition of the colonic motility in humans; Active; type: functional, organism-based
Canis familiaris = species: Canis familiaris; experiment: Compound was tested for the inhibition of the gastrointestinal motility in dogs; Active; type: functional, organism-based; settings: Canis lupus familiaris
[4] = molecular target: Muscarinic acetylcholine receptor M3 (Homo sapiens) (UniProt P20309); experiment: Evaluated for the in vivo antagonistic activity against muscarinic M3 receptor; Active; type: functional, organism-based

Measured: Activity

Sequence of Muscarinic acetylcholine receptor M3 (Homo sapiens) (P20309 whole entry, looked up): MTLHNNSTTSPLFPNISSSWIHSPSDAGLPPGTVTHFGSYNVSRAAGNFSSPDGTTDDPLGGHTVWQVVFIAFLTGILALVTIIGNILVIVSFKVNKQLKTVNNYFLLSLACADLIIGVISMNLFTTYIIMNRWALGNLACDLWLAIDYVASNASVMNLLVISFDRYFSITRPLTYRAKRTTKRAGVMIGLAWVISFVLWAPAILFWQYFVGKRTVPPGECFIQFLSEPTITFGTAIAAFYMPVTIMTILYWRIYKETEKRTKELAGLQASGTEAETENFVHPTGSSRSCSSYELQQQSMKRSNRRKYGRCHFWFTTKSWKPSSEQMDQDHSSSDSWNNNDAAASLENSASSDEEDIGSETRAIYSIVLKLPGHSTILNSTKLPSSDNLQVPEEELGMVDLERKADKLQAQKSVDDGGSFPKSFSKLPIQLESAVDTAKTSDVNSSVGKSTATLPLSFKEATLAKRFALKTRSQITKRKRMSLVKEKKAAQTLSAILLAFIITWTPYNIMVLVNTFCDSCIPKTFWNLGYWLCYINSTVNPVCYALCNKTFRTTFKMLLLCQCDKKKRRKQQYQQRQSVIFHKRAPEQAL

c1ccc(C(O[C@@H]2CCCN(CCc3ccc4c(c3)OCO4)C2)c2ccccc2)cc1
active: [1] | Homo sapiens [2] | Homo sapiens [3] | Canis familiaris | [4]
